This is an account of results in BindingDB's records for doi:10.1021/acs.jmedchem.0c00996 (Albany College of Pharmacy and Health Sciences, 2020).

In this experiment the target is Retinol-binding protein 4 (Homo sapiens, UniProt P02753). The experiment can be described thus: Displacement of [3H]-all-trans-retinol from biotinylated human urine derived RBP4 measured after 16 hrs by scintillation proximity assay. In general terms: Displacement assays read how much labelled ligand stays bound in the presence of the test substance.

As a reminder, the IC50 is the concentration that gives 50% inhibition. A high value points to lower potency. In the case of `Cc1cc(C(=O)O)nc(N2CCC(COc3ccccc3C(F)(F)F)C2)n1` (stereo unspecified), the IC50 stood at 80 nM.
